Active and inactive are the calls of the source. No cut-off for these calls is given here.
Assays:
Format in all cases: functional
Aspergillus niger [1] = test: Antifungal activity against Aspergillus niger at 100 ug/well after 48 hrs by agar well diffusion method; settings: read-out: DIZ
Klebsiella pneumoniae [2] = test: Antibacterial activity against Klebsiella pneumoniae at 50 ug/well after 24 hrs by agar well diffusion method; settings: for zone of inhibition at 50 µg/disc: read-out: DIZ
Bacillus subtilis [3] = test: Antibacterial activity against Bacillus subtilis at 50 ug/well after 24 hrs by agar well diffusion method; settings: for zone of inhibition at 50 µg/disc: read-out: DIZ
Penicillium chrysogenum [4] = test: Antifungal activity against Penicillium chrysogenum at 50 ug/well after 48 hrs by agar well diffusion method; settings: read-out: DIZ
Staphylococcus aureus [5] = test: Antibacterial activity against Staphylococcus aureus at 100 ug/well after 24 hrs by agar well diffusion method; settings: for zone of inhibition at 100 µg/disc: read-out: DIZ
Staphylococcus aureus [6] = test: Antibacterial activity against Staphylococcus aureus at 50 ug/well after 24 hrs by agar well diffusion method; settings: for zone of inhibition at 50 µg/disc: read-out: DIZ
Pseudomonas aeruginosa [7] = test: Antibacterial activity against Pseudomonas aeruginosa at 50 ug/well after 24 hrs by agar well diffusion method; settings: for zone of inhibition at 50 µg/disc: read-out: DIZ
Bacillus subtilis [8] = test: Antibacterial activity against Bacillus subtilis at 100 ug/well after 24 hrs by agar well diffusion method; settings: for zone of inhibition at 100 µg/disc: read-out: DIZ
Aspergillus niger [9] = test: Antifungal activity against Aspergillus niger at 50 ug/well after 48 hrs by agar well diffusion method; settings: read-out: DIZ
Pseudomonas aeruginosa [10] = test: Antibacterial activity against Pseudomonas aeruginosa at 100 ug/well after 24 hrs by agar well diffusion method; settings: for zone of inhibition at 100 µg/disc: read-out: DIZ
Penicillium chrysogenum [11] = test: Antifungal activity against Penicillium chrysogenum at 100 ug/well after 48 hrs by agar well diffusion method; settings: read-out: DIZ
Klebsiella pneumoniae [12] = test: Antibacterial activity against Klebsiella pneumoniae at 100 ug/well after 24 hrs by agar well diffusion method; settings: for zone of inhibition at 100 µg/disc: read-out: DIZ

Row | Compound | zone of inhibition at 100 µg/disc (Aspergillus niger [1]) [mm] | zone of inhibition at 50 µg/disc (Klebsiella pneumoniae [2]) [mm] | zone of inhibition at 50 µg/disc (Bacillus subtilis [3]) [mm] | zone of inhibition at 50 µg/disc (Penicillium chrysogenum [4]) [mm] | zone of inhibition at 100 µg/disc (Staphylococcus aureus [5]) [mm] | zone of inhibition at 50 µg/disc (Staphylococcus aureus [6]) [mm] | diameter of the inhibition zone (DIZ) (Pseudomonas aeruginosa [7]) | zone of inhibition at 100 µg/disc (Bacillus subtilis [8]) [mm] | zone of inhibition at 50 µg/disc (Aspergillus niger [9]) [mm] | diameter of the inhibition zone (DIZ) (Pseudomonas aeruginosa [10]) | zone of inhibition at 100 µg/disc (Penicillium chrysogenum [11]) [mm] | zone of inhibition at 100 µg/disc (Klebsiella pneumoniae [12]) [mm] | zone of inhibition at 50 µg/disc (Pseudomonas aeruginosa [7]) [mm] | zone of inhibition at 100 µg/disc (Pseudomonas aeruginosa [10]) [mm] | diameter of the inhibition zone (DIZ) (Klebsiella pneumoniae [2]) | diameter of the inhibition zone (DIZ) (Bacillus subtilis [3]) | diameter of the inhibition zone (DIZ) (Staphylococcus aureus [5]) | diameter of the inhibition zone (DIZ) (Staphylococcus aureus [6]) | diameter of the inhibition zone (DIZ) (Bacillus subtilis [8]) | diameter of the inhibition zone (DIZ) (Klebsiella pneumoniae [12])
1 | O=S(=O)(c1ccccc1)C1C(c2ccc(Cl)cc2)=NN(c2ccccc2)C1c1ccc(C2C(S(=O)(=O)c3ccccc3)C(c3ccc(Cl)cc3)=NN2c2ccccc2)cc1 (centres undefined) | 15 | 10 | 12 | 15 | 13 | 11 | inactive | 14 | 13 | inactive | 18 | 12 |  |  |  |  |  |  |  | 
2 | COc1ccc(-c2noc(-c3ccc(-c4onc(-c5ccc(OC)cc5)c4S(=O)(=O)c4ccccc4)cc3)c2S(=O)(=O)c2ccccc2)cc1 | 30 | 18 | 26 | 26 | 23 | 20 |  | 28 | 27 |  | 29 | 21 | 16 | 18 |  |  |  |  |  | 
3 | COc1ccc(-c2noc(-c3ccc(-c4onc(-c5ccc(OC)cc5)c4S(=O)(=O)c4ccc(C)cc4)cc3)c2S(=O)(=O)c2ccc(C)cc2)cc1 | 24 | 16 | 25 | 25 | 22 | 20 |  | 27 | 22 |  | 27 | 18 | 15 | 17 |  |  |  |  |  | 
4 | COc1ccc(-c2noc(-c3ccc(-c4onc(-c5ccc(OC)cc5)c4S(=O)(=O)c4ccc(Cl)cc4)cc3)c2S(=O)(=O)c2ccc(Cl)cc2)cc1 | 26 | 22 | 30 | 27 | 26 | 23 |  | 32 | 23 |  | 30 | 24 | 17 | 20 |  |  |  |  |  | 
5 | COc1ccc(C2=NOC(c3ccc(C4ON=C(c5ccc(OC)cc5)C4S(=O)(=O)c4ccccc4)cc3)C2S(=O)(=O)c2ccccc2)cc1 (centres undefined) | 20 |  |  | 14 |  |  | inactive |  | 18 | inactive | 17 |  |  |  | inactive | inactive | inactive | inactive | inactive | inactive
6 | COc1ccc(C2=NOC(c3ccc(C4ON=C(c5ccc(OC)cc5)C4S(=O)(=O)c4ccc(Cl)cc4)cc3)C2S(=O)(=O)c2ccc(Cl)cc2)cc1 (centres undefined) | 16 | 9 | 13 | 16 | 12 | 9 | inactive | 15 | 14 | inactive | 19 | 11 |  |  |  |  |  |  |  | 
7 | Cc1ccc(S(=O)(=O)C2C(c3ccc(Cl)cc3)=NN(c3ccccc3)C2c2ccc(C3C(S(=O)(=O)c4ccc(C)cc4)C(c4ccc(Cl)cc4)=NN3c3ccccc3)cc2)cc1 (centres undefined) | 14 | 8 | 11 | 14 | 11 | 9 | inactive | 13 | 12 | inactive | 16 | 10 |  |  |  |  |  |  |  | 

From ChEMBL document CHEMBL3112509, “Synthesis and antimicrobial activity of (1,4-phenylene)bis(arylsulfonylpyrazoles and isoxazoles)” (2014)
